# Results from patent US10653700B2, “Composition comprising a therapeutic agent and a respiratory stimulant and methods for the use thereof” (priority 2015, dated 2020).
# Where a name gives a salt, the structure may show the parent alone. Read-outs that look alike come from different tables or passages of the source.
# Legend:
# [1] = carotid body denervated rats; cited from earlier work
# [2] = mice; cited from earlier work
# [3] = obstructive sleep apnea, four subjects; cited from earlier work
# [4] = rat, IV, single dose; cited from earlier work
# [5] = cited from earlier work
# [6] = humans, severe life-threatening side effects; cited from earlier work
# [7] = intravenous; cited from earlier work
# [8] = lambs; cited from earlier work
# [9] = test system: AMPA receptor; settings: human, in vivo; cited from earlier work
# [10] = test system: AMPA receptor; settings: in vivo; cited from earlier work
# [11] = cited from earlier work; remark: listed apart in the source
# [12] = carotid sinus nerve transection; cited from earlier work
# [13] = minute volume after intravenous doxapram enantiomers in rats; format: in vivo; settings: for behavioral side effects (agitation, seizures): rats
# [14] = minute volume after intravenous doxapram enantiomers in cynomolgus monkeys; format: in vivo; settings: for behavioral side effects (agitation, seizures): monkeys
# [15] = blood pressure in conscious rats; format: in vivo; settings: doses that were moderately respiratory stimulant
# [16] = chronic administration, multi-year trials; cited from earlier work
# [17] = cited from earlier work; remark: listed apart in the source
# [18] = cited from earlier work; remark: listed apart in the source
# [19] = cited from earlier work; remark: listed apart in the source
# [20] = rhesus monkeys; cited from earlier work
# [21] = in blood; cited from earlier work
# [22] = healthy volunteers, room air VE unchanged
smiles,measurement,setting,value
"CCN1CC(CCN2CCOCC2)C(c2ccccc2)(c2ccccc2)C1=O (racemic) [doxapram, 1-ethyl-4-[2-(4-morpholinyl)ethyl]-3,3-diphenyl-2-pyrrolidinone monohydrochloride, monohydrate]",blood pressure,[1],increased blood pressure
same,LD50,[2],85 mg/kg
same,oxyhemoglobin desaturation events,[3],decreased the duration and severity
same,LD50,[4],72 mg/kg
same,T1/2,[5]; 1.5 mg/kg bolus,3.4 h
same,peak in serum,[5]; 1.5 mg/kg bolus,around 3 μg/ml
same,peak plasma concentration,[5]; 300 mg oral administration,0.96 µg/mL
same,peak plasma concentration,[5]; IV infusion 3.5 mg/kg/hr for 2 hours,4.0 µg/mL
same,T1/2,[5]; after stop of IV infusion 3.5 mg/kg/hr for 2 hours,3.9 h
same,"effect on minute ventilation, time span",[5]; in vivo,0 to 10 min
same,return of minute ventilation to baseline,[5]; in vivo,≤ 15 min
same,therapeutic window,[6],20-40 fold
same,duration of effect,[7],5 to 12 min
same,half-life,[7],3.4 h
same,onset,[7],20 to 40 s
same,peak plasma time,[7],1 to 2 min
"CCN1CC(CCN2CCOCC2=O)C(c2ccccc2)(c2ccccc2)C1=O (centres unmarked) [AHR 5955, ketodoxapram]",activity of metabolite,[8],metabolically active in lambs in a dose dependent fashion
O=C(c1ccc2nonc2c1)N1CCOCC1 [CX717],respiratory rate vs. placebo,[9],prevented the fall in respiratory rate
same,effect on respiratory depression,[10],able to reverse the respiratory depressive effects
CCCNc1nc(NCCC)nc(N(C)OC)n1 [GAL-021],VE (AUE 0-1 h),[11]; 1-h continuous infusions,statistically significant increases
same,time to half-maximal effect on VE and ETCO2,[11]; 1-h continuous infusions,< 10 min
same,distribution t1/2,[11]; after infusion,0.5 h
same,terminal t1/2,[11]; after infusion,5 to 7 h
same,reduction of GAL-021-induced respiratory stimulation,[12],about 85%
CCN1CC(CCN2CCOCC2)C(c2ccccc2)(c2ccccc2)C1=O (centres unmarked) [GAL-053],"behavioral side effects (agitation, seizures)",[13],agitation and seizures were restricted to GAL-053
same,"behavioral side effects (agitation, seizures)",[14],agitation and seizures were restricted to GAL-053
CCN1CC(CCN2CCOCC2)C(c2ccccc2)(c2ccccc2)C1=O (centres unmarked) [GAL-054],minute volume,"[13]; intravenous, drug naïve and opioid challenged rats",dose-dependently increased minute volume
same,"behavioral side effects (agitation, seizures)",[13],minimal behavioral changes
same,minute volume,"[14]; intravenous, drug naïve and opioid challenged cynomolgus monkeys",dose-dependently increased minute volume
same,"behavioral side effects (agitation, seizures)",[14],minimal behavioral changes
same,increase in blood pressure above baseline values,[15],15-20%
"C=CCNc1nc(NCC=C)nc(N2CCN(C(c3ccc(F)cc3)c3ccc(F)cc3)CC2)n1 [almitrine, N,N′-Diallyl-6-[4-(4,4′difluorobenzhydryl)piperazin-1-yl]-1,3,5-triazine-2,4-diyldiamine]",LD50,[2],> 200 mg/kg
same,weight loss,[16],> 15%
same,plasma level at which slope of hypercapnic ventilatory response increased,[17]; [22],> 200 ng/mL
same,plasma level at which slope of hypoxic ventilatory response increased,[17]; [22],> 50 ng/mL
same,increase in VE above baseline,"[17]; room air, plasma concentrations exceeding approximately 250 μg/ml",about 11%
COc1ccc2c3c1O[C@H]1C(=O)CC[C@H]4[C@@H](C2)N(C)CC[C@]314.O=C(O)C(O)C(O)C(=O)O [hydrocodone bitartrate],maximum plasma concentration (Cmax),"[18]; after 15 mg hydrocodone to a human subject, depending on formulation",1 to 40
COc1ccc2c3c1O[C@H]1C(=O)CC[C@H]4[C@@H](C2)N(C)CC[C@]314 [hydrocodone],serum half-life,[19]; average,3.8 h
same,metabolism attributed to non-cytochrome-catalyzed reactions,[19]; in vivo,Approximately 40%
same,analgesic potency versus morphine,[20],higher than morphine
same,blood and plasma concentration,"[18]; acute, fatal overdose","100-1,600 μg/L"
same,blood and plasma concentration,[18]; people taking the drug therapeutically,5 to 30 µg/L
same,blood and plasma concentration,[18]; recreational users,100 to 200 µg/L
same,bound to protein,[21],20-50%
